Assay results taken from patent publication US20100292278A1, “Methods of treating vascular disease and injury” (priority 2009, published 2010).

Experiments:
miR-29a = test: qRT-PCR of miR-29 expression level in H9c2 cells; assay type: cell-based, rat
Procedure: (§1) The cardiac muscle cell H9c2 was maintained in complete growth medium, supplemented with 10% FBS, penicillin G (100 IU/ml). Cells were incubated at 37° C. in a humidified atmosphere (5% CO2/95% air). Passages 5-9 were used for all experiments. Exponentially growing H9c2 cells were seeded at 1×10^5 per 100 mm plate and incubated until 60-70% confluent. Cells were treated with: 1) vehicle alone (2% ethanol); 2) 10 nM PIO; 3) 1 μM GW9662; 4) 10 nM PIO+1 μM GW9662. PIO was dissolved in 70% ethanol. 24 hours later, cells were harvested and total RNA enriched with small RNAs was isolated using mirVana miRNA Isolation Kit (Ambion). MiR-29 levels were measured using the mirVana qRT-PCR miRNA Detection Kit (Ambion). Reactions containing mirVana qRT-PCR Primer Sets were specific for rat miR-29. The appropriate cycle threshold (Ct) was determined by using the automatic baseline determination feature. The expression of miR-29 between RNA samples was calculated. Data were normalized by evaluating U6 expression.

miR-29c = test: qRT-PCR of miR-29 expression level in H9c2 cells; assay type: cell-based, rat
Procedure: as §1

[1] = 10 nM PIO + 1 μM GW9662, 24 hours
[2] = single agent, 24 hours, 10 nM PIO or 1 μM GW9662, vs vehicle control

O=C(Nc1ccccc1)c1cc([N+](=O)[O-])ccc1Cl [GW9662]
effect of PIO on miR-29a level in H9c2 cells (qRT-PCR) (miR-29a; [1]): block the effect of PIO
miR-29a level in H9c2 cells (qRT-PCR) (miR-29a; [2]): no effect
effect of PIO on miR-29c level in H9c2 cells (qRT-PCR) (miR-29c; [1]): block the effect of PIO
miR-29c level in H9c2 cells (qRT-PCR) (miR-29c; [2]): no effect
